Test results from US20100075370A1, “METHOD FOR DETERMINATION OF CELL VIABILITY BY USING FLOW CYTOMETRY WITH FIXED VOLUME ACQUISITION” (TUMORTEC GMBH, priority 2006, published 2010).

What was measured:
[1] = test system: pBMC from patients with CLL; assay: Cytotoxicity of several antineoplastic agents on pBMC (LC90), fixed volume flow cytometry; format: cell-based, human; conditions: in µg/mL
Description: The necessary peripheral blood (PB) samples from adult patients diagnosed with chronic lymphatic leukaemia (CLL) were collected into heparin during routine diagnosis prior to administration of chemotherapy.

[2] = test system: patient samples (pBMC from CLL patients); assay: Cytotoxicity assay of example 1 (new method), chemosensitivity index Ci; format: cell-based, human
Method: (2) A more complex standardization is the calculation of an index. In case of the chemosensitivity testing it is not a single value that has to be standardized. The chemosensitivity towards a drug is tested with several concentrations of the drug in parallel in a cell culture assay. […] This method was adopted for the present invention from the analysis of DiSC assays (Staib et al., British Journal of Haematology, 2005, 128, 783-791). The Chemosensitivity Index Ci was designed as a prognostic index for ex vivo chemosensitivity assays. Assay results were expressed as percent tumor cell survival (% TCS). The dose-response curve as a function of the dose-response relationship may be mathematically described by a […] regression model (FIG. 4). The dose-response curve was defined as CS=c1*e^conc*c2 % with cell survival (CS), drug concentration (conc) and the constants c1 and c2. c1 represented the y-axis distance and c2 the slope of the curve. The area under the curve (AUC) as an exact measure for the total dose response relation was defined as AUC=−e^c1/c2, on condition that c2 is less than 0, otherwise AUC is infinite. The chemosensitivity index, Ci, was set up as Ci=e^−AUC*c with a domain between 0 and 1. The drug-specific constant c was used for adjusting the Ci-value of 0.5 as the cut-off point between resistance and sensitivity. The constant c was defined as
with AUCcut-off as the smallest AUC value among all clinical non-responding patients of the training data set. Obviously, all cytotoxic agents given for treatment were ineffective in these patients. The cut-off Ci value must be adjusted to 0.5 for prognosis of the effect of the drug on a patient in vivo when the drug is tested on said patient's cells in vitro using the method of the present invention. Ci values of 0-0.5 indicated resistance and values above 0.5 predicted sensitivity against the drug tested.
Peripheral blood mononuclear cells (pBMC) from a patient with chronic lymphatic leukaemia were isolated from the PB samples as described before (Staib, P. et al., Br. J. Haematol., 128(6):783-91 (2005)), resuspended in RPMI 1640 medium (Biochrom, Berlin, Germany) containing 20 vol. % fetal calf serum (FCS; Biochrom, Berlin, Germany) and added into the precoated 96-well plate with a final cell concentration of 10,000 cells/well and a volume of 100 μl. The plates were then agitated for 15 min in order to solubilize the dried fludarabine phosphate. Subsequently, the plates were incubated for 96 h (37° C., 5% CO2, humidified atmosphere). Thereafter, 50 μl of an 11 μM propidium iodide (PI)-solution in 0.9% aqueous NaCl solution (NaCl 0.9%) (Invitrogen, Leiden, Netherlands) were added and incubated for 15 min at room temperature. PI is a standard flow cytometric viability probe and is used to distinguish viable from nonviable cells. Viable cells with intact membranes exclude PI, whereas the membranes of dead and damaged cells are permeable to PI. PI only stains cells with compromised cell membrane, whilst live cells which have intact membranes are not stained by PI.
The chemosensitivity index Ci based on the DiSC assay as described in Staib, P. et al., Br. J. Haematol., 128(6):783-91 (2005) is known to have a very high accuracy of prediction (98%) for the clinical outcome of a particular chemotherapy (Staib, P. et al., Br. J. Haematol., 128(6):783-91 (2005)). In order to evaluate the accuracy of the cytotoxicity assay as described in example 1 (“new method”), the Ci determination was performed for assay results of patient samples analyzed with the traditional DiSC assay and—in parallel—with the new assay method described in example 1. In total, 22 patient samples were analyzed. Fludara® was used in both assays. The cytotoxicity assay of example 1 was performed as described therein, and the DiSC assay was performed as described in Staib, P. et al., Br. J. Haematol., 128(6):783-91 (2005).

Nc1nc(F)nc2c1ncn2[C@@H]1O[C@H](COP(=O)(O)O)[C@@H](O)[C@@H]1O [Fludarabine phosphate, 2-Fluoro-9-(5-O-phosphono-β-D-arabinofuranosyl)-9H-purin-6-amine]
LC90 ([1]; pBMC of CLL patient #1, ex vivo): 69.69 | LC90 ([1]; pBMC of CLL patient #2, ex vivo): 11.74 | LC90 ([1]; pBMC of CLL patient #3, ex vivo): 0.09 | LC90 ([1]; pBMC of CLL patient #4, ex vivo): 26.00 | LC90 ([1]; pBMC of CLL patient #5, ex vivo): 0.46 | LC90 ([1]; pBMC of CLL patient #6, ex vivo): 18.17 | LC90 ([1]; pBMC of CLL patient #7, ex vivo): 13.25 | LC90 ([1]; pBMC of CLL patient #8, ex vivo): 15.02 | LC90 ([1]; pBMC of CLL patient #9, ex vivo): 0.94 | LC90 ([1]; pBMC of CLL patient #10, ex vivo): 0.01 | LC90 ([1]; pBMC of CLL patient #11, ex vivo): 2.15 | LC90 ([1]; pBMC of CLL patient #12, ex vivo): 0.33 | LC90 ([1]; pBMC of CLL patient #13, ex vivo): 0.82 | LC90 ([1]; pBMC of CLL patient #14, ex vivo): 0.86 | LC90 ([1]; pBMC of CLL patient #15, ex vivo): 0.58 | LC90 ([1]; pBMC of CLL patient #16, ex vivo): 0.22 | LC90 ([1]; pBMC of CLL patient #17, ex vivo): 0.55 | LC90 ([1]; pBMC of CLL patient #18, ex vivo): 0.55 | LC90 ([1]; pBMC of CLL patient #19, ex vivo): 0.50 | LC90 ([1]; pBMC of CLL patient #20, ex vivo): 0.00 | LC90 ([1]; pBMC of CLL patient #21, ex vivo): 0.11 | LC90 ([1]; pBMC of CLL patient #22, ex vivo): 81.92 | LC90 ([1]; pBMC of CLL patient #23, ex vivo): 0.01 | LC90 ([1]; pBMC of CLL patient #24, ex vivo): 23.76 | LC90 ([1]; pBMC of CLL patient #25, ex vivo): 35.21 | patients DiSC-Assay resistant / New method sensitive ([2]; of 22 patients): 0 | patients DiSC-Assay sensitive / New method resistant ([2]; of 22 patients): 0 | Ci (New Method) ([2]; patient #1): 0.99 | prediction (New Method) ([2]; patient #1): sensitive (values above 0.5 predicted sensitivity against the drug tested) | Ci (New Method) ([2]; patient #2): 0.94 | prediction (New Method) ([2]; patient #2): sensitive (values above 0.5 predicted sensitivity against the drug tested) | Ci (New Method) ([2]; patient #3): 0.99 | prediction (New Method) ([2]; patient #3): sensitive (values above 0.5 predicted sensitivity against the drug tested) | Ci (New Method) ([2]; patient #4): 0.89 | prediction (New Method) ([2]; patient #4): sensitive (values above 0.5 predicted sensitivity against the drug tested) | Ci (New Method) ([2]; patient #5): 0.93 | prediction (New Method) ([2]; patient #5): sensitive (values above 0.5 predicted sensitivity against the drug tested) | Ci (New Method) ([2]; patient #6): 0.79 | prediction (New Method) ([2]; patient #6): sensitive (values above 0.5 predicted sensitivity against the drug tested) | Ci (New Method) ([2]; patient #7): 0.74 | prediction (New Method) ([2]; patient #7): sensitive (values above 0.5 predicted sensitivity against the drug tested) | Ci (New Method) ([2]; patient #8): 0.83 | prediction (New Method) ([2]; patient #8): sensitive (values above 0.5 predicted sensitivity against the drug tested) | Ci (New Method) ([2]; patient #9): 0.65 | prediction (New Method) ([2]; patient #9): sensitive (values above 0.5 predicted sensitivity against the drug tested) | Ci (New Method) ([2]; patient #10): 0.74 | prediction (New Method) ([2]; patient #10): sensitive (values above 0.5 predicted sensitivity against the drug tested) | Ci (New Method) ([2]; patient #11): 0.60 | prediction (New Method) ([2]; patient #11): sensitive (values above 0.5 predicted sensitivity against the drug tested) | Ci (New Method) ([2]; patient #12): 0.81 | prediction (New Method) ([2]; patient #12): sensitive (values above 0.5 predicted sensitivity against the drug tested) | Ci (New Method) ([2]; patient #13): 0.65 | prediction (New Method) ([2]; patient #13): sensitive (values above 0.5 predicted sensitivity against the drug tested) | Ci (New Method) ([2]; patient #14): 0.63 | prediction (New Method) ([2]; patient #14): sensitive (values above 0.5 predicted sensitivity against the drug tested) | Ci (New Method) ([2]; patient #15): 0.71 | prediction (New Method) ([2]; patient #15): sensitive (values above 0.5 predicted sensitivity against the drug tested) | Ci (New Method) ([2]; patient #16): 0.35 | prediction (New Method) ([2]; patient #16): resistant (Ci values of 0-0.5 indicated resistance) | Ci (New Method) ([2]; patient #17): 0.41 | prediction (New Method) ([2]; patient #17): resistant (Ci values of 0-0.5 indicated resistance) | Ci (New Method) ([2]; patient #18): 0.35 | prediction (New Method) ([2]; patient #18): resistant (Ci values of 0-0.5 indicated resistance) | Ci (New Method) ([2]; patient #19): 0.24 | prediction (New Method) ([2]; patient #19): resistant (Ci values of 0-0.5 indicated resistance) | Ci (New Method) ([2]; patient #20): 0.36 | prediction (New Method) ([2]; patient #20): resistant (Ci values of 0-0.5 indicated resistance) | Ci (New Method) ([2]; patient #21): 0.41 | prediction (New Method) ([2]; patient #21): resistant (Ci values of 0-0.5 indicated resistance) | Ci (New Method) ([2]; patient #22): 0.24 | prediction (New Method) ([2]; patient #22): resistant (Ci values of 0-0.5 indicated resistance)
